ChEMBL document CHEMBL1143555, “Development of low molecular weight HIV-1 protease dimerization inhibitors” (J Med Chem, 2005)

Assays:
[1] = biological target: Human immunodeficiency virus type 1 protease (Human immunodeficiency virus 1) (UniProt Q72874); assay: Percent inhibition of human immunodeficiency virus-1 protease after 1 uM treatment
[2] = biological target: T1, Human immunodeficiency virus type 1 protease (Human immunodeficiency virus 1, UniProt Q72874); assay: Inhibitory concentration against human immunodeficiency virus -1 protease
[3] = biological target: T1, Human immunodeficiency virus type 1 protease; assay: Inhibitory concentration against human immunodeficiency virus-1 protease
[4] = biological target: T1, Human immunodeficiency virus type 1 protease; assay: Inhibitory concentration against human immunodeficiency virus-1 protease; (competitive inhibitor)

SMILES | inhibition [1] | IC50 [3] | further results
CC[C@H](C)[C@@H](NC(=O)C(CC1CC1)NC(=O)CCCCCCCCCCCCCCC(=O)N[C@H](CC(=O)N[C@@H](Cc1ccccc1)C(=O)O)C(N)=O)C(=O)N[C@@H](Cc1ccccc1)C(N)=O (some centres undefined) | 32% | – | –
CC(C)C[C@H](NC(=O)[C@@H](NC(=O)CCCCCCCCCCCCCCC(=O)N[C@H](CC(=O)N[C@@H](Cc1ccccc1)C(=O)O)C(N)=O)C(C)O)C(=O)N[C@@H](Cc1ccccc1)C(N)=O (some centres undefined) | – | 5.4 nM | Ki [2]: 3 µM
CCC(C)[C@@H](NC(=O)[C@@H](NC(=O)CCCCCCCCCCCCCCC(=O)N[C@H](CC(=O)N[C@@H](Cc1ccccc1)C(=O)O)C(N)=O)C(C)O)C(=O)N[C@@H](Cc1ccccc1)C(N)=O (some centres undefined) | – | 1.1 nM | Ki [2]: 210 µM
CCCCC(NC(=O)CCCCCCCCCCCCCCC(=O)N[C@H](CC(=O)N[C@@H](Cc1ccccc1)C(=O)O)C(N)=O)C(=O)N[C@@H](C(=O)N[C@@H](Cc1ccccc1)C(N)=O)C(C)CC (some centres undefined) | – | 1600 nM | –
CC(O)[C@H](NC(=O)CCCCCCCCCCCCCCC(=O)N[C@H](CC(=O)N[C@@H](Cc1ccccc1)C(=O)O)C(N)=O)C(=O)N[C@@H](Cc1ccccc1)C(N)=O (some centres undefined) | – | – | IC50 [4]: 11 µM
CCC(C)[C@@H](NC(=O)[C@@H](NC(=O)CCCCCCCCCCCCCCC(=O)N[C@H](CC(=O)N[C@@H](Cc1ccccc1)C(=O)O)C(N)=O)C(C)O)C(=O)Nc1ccc(C(N)=O)cc1 (some centres undefined) | 36% | – | –
CC[C@H](C)[C@@H](NC(=O)[C@@H](NC(=O)CCCCCCCCCCCCCCC(=O)N[C@H](CC(=O)N[C@@H](Cc1ccccc1)C(=O)O)C(N)=O)[C@H](C)O)C(=O)N[C@@H](Cc1cc(I)c(O)c(I)c1)C(N)=O | – | 740000 nM | –
CC[C@H](C)[C@@H](NC(=O)[C@@H](NC(=O)CCCCCCCCCCCCCCC(=O)N[C@H](CC(=O)N[C@@H](Cc1ccccc1)C(=O)O)C(N)=O)[C@H](C)O)C(=O)N[C@@H](Cc1ccc(F)c(F)c1)C(N)=O | – | 872000 nM | –
CC[C@H](C)[C@@H](NC(=O)C(C)(C)NC(=O)CCCCCCCCCCCCCCC(=O)N[C@H](CC(=O)N[C@@H](Cc1ccccc1)C(=O)O)C(N)=O)C(=O)N[C@@H](Cc1ccccc1)C(N)=O | 7% | – | –
CCC(C)[C@@H](NC(=O)C(NC(=O)CCCCCCCCCCCCCCC(=O)N[C@H](CC(=O)N[C@@H](Cc1ccccc1)C(=O)O)C(N)=O)c1ccccc1)C(=O)N[C@@H](Cc1ccccc1)C(N)=O (some centres undefined) | – | 2100 nM | –
CCC(C)[C@@H](NC(=O)C(CCc1ccccc1)NC(=O)CCCCCCCCCCCCCCC(=O)N[C@H](CC(=O)N[C@@H](Cc1ccccc1)C(=O)O)C(N)=O)C(=O)N[C@@H](Cc1ccccc1)C(N)=O (some centres undefined) | – | 980 nM | –
CC[C@H](C)[C@@H](NC(=O)[C@@H](NC(=O)CCCCCCCCCCCCCCC(=O)N[C@H](CC(=O)N[C@@H](Cc1ccccc1)C(=O)O)C(N)=O)[C@H](C)O)C(=O)N[C@@H](Cc1ccc(N)cc1)C(N)=O | – | 3600 nM | –

Now from value to compound, other results behind:

inhibition [1] | SMILES | IC50 [3] | further results
12% | CC[C@H](C)[C@@H](NC(=O)CCCCNC(=O)CCCCCCCCCCCCCCC(=O)N[C@H](CC(=O)N[C@@H](Cc1ccccc1)C(=O)O)C(N)=O)C(=O)N[C@@H](Cc1ccccc1)C(N)=O | – | –
15% | CCC(C)[C@H](NC(=O)CCCCCCCCCCCCCCC(=O)N[C@@H](CC(N)=O)C(=O)NC(Cc1ccc(O)cc1)C(=O)O)C(=O)N[C@H](Cc1ccccc1)C(N)=O (some centres undefined) | – | –
10% | CC[C@H](C)[C@@H](NC(=O)c1cccc(CNC(=O)CCCCCCCCCCCCCCC(=O)N[C@H](CC(=O)N[C@@H](Cc2ccccc2)C(=O)O)C(N)=O)c1)C(=O)N[C@@H](Cc1ccccc1)C(N)=O | – | –
8% | CCC(C)[C@@H](NC(=O)[C@@H](NC(=O)CCCCCCCCCCCCCCC(=O)N[C@H](CC(=O)N[C@@H](Cc1ccccc1)C(=O)O)C(N)=O)C(C)O)C(=O)NC(CO)C(N)=O (some centres undefined) | – | –
29% | CCC(C)[C@@H](NC(=O)[C@@H](NC(=O)CCCCCCCCCCCCCCC(=O)N[C@H](CC(=O)N[C@@H](Cc1ccccc1)C(=O)O)C(N)=O)C(C)O)C(=O)NC(C(N)=O)c1ccccc1 (some centres undefined) | – | –
21% | CCC(C)[C@@H](NC(=O)[C@@H](NC(=O)CCCCCCCCCCCCCCC(=O)N[C@H](CC(=O)N[C@@H](Cc1ccccc1)C(=O)O)C(N)=O)C(C)O)C(=O)NC(CC1CC1)C(N)=O (some centres undefined) | – | –
13% | CC[C@H](C)[C@@H](NC(=O)C(CC1CCCC1)NC(=O)CCCCCCCCCCCCCCC(=O)N[C@H](CC(=O)N[C@@H](Cc1ccccc1)C(=O)O)C(N)=O)C(=O)N[C@@H](Cc1ccccc1)C(N)=O (some centres undefined) | – | –
45% | CC(O)[C@H](NC(=O)CCCCCCCCCCCCCCC(=O)N[C@H](CC(=O)N[C@@H](Cc1ccccc1)C(=O)O)C(N)=O)C(=O)N[C@@H](C(=O)N[C@@H](Cc1ccccc1)C(N)=O)C1CCCCC1 (some centres undefined) | – | –
14% | CCCC(NC(=O)CCCCCCCCCCCCCCC(=O)N[C@H](CC(=O)N[C@@H](Cc1ccccc1)C(=O)O)C(N)=O)C(=O)N[C@@H](C(=O)N[C@@H](Cc1ccccc1)C(N)=O)[C@@H](C)CC (some centres undefined) | – | –
30% | CC(O)[C@H](NC(=O)CCCCCCCCCCCCCCC(=O)N[C@H](CC(=O)N[C@@H](Cc1ccccc1)C(=O)O)C(N)=O)C(=O)N[C@H](CC1CCCCC1)C(=O)N[C@@H](Cc1ccccc1)C(N)=O (some centres undefined) | – | –
